Patent publication US20240329286A1, “LIGHT ABSORPTION FILTER, OPTICAL FILTER, MANUFACTURING METHOD FOR OPTICAL FILTER, ORGANIC ELECTROLUMINESCENT DISPLAY DEVICE, INORGANIC ELECTROLUMINESCENT DISPLAY DEVICE, AND LIQUID CRYSTAL DISPLAY DEVICE” (FUJIFILM Corporation, priority 2022, published 2024)

Assay: pKaH (pKa of the conjugate acid) by titration with sodium hydroxide aqueous solution
Type: physicochemical
Settings: water/methanol=50/50 (volume ratio), 25° C.
Text: The pKa can be calculated by dropwise adding a 0.01 mol/L sodium hydroxide aqueous solution to a mixed solution of water/methanol=50/50 (in terms of volume ratio) of a measurement sample (a conjugate acid of the compound B) and reading the amount of the sodium hydroxide aqueous solution that has been dropwise added up to the half-equivalent point.

| Compound | pKaH |
| --- | --- |
| c1ccc(-c2ccnc3ccccc23)cc1 [4-Phenylquinoline] | 4.3 |

Same assay, conditions: water/methanol=50/50 (volume ratio), 25° C., Table 2

| Compound | pKaH of compound B |
| --- | --- |
| Cc1cc(C)c2ccccc2n1 [2,4-dimethylquinoline] | 5.7 |
| Cc1ccc2ccccc2n1 [2-methylquinoline] | 4.8 |
| Cc1cc2ccccc2cn1 [3-methylisoquinoline] | 5.2 |
| Cc1ccnc2ccccc12 [4-methylquinoline] | 5.1 |
| c1ccc2cnccc2c1 [Isoquinoline] | 4.7 |
| c1ccc2ncccc2c1 [Quinoline] | 4.2 |
